Test results reported in US20150150909A1, “ANTI-GLYCATION METHODS AND COMPOSITIONS” (CORE INTELLECTUAL PROPERTIES HOLDINGS, LLC, priority 2007, published 2015).
Where “and” joins values, the source holds several entries; their conditions need not be identical. Identical values can stand only once.

Assays:
human dermal fibroblasts = experiment: MTT mitochondrial metabolism assay (Example 10); type: cell-based
Description: The objective of this Example was to test the effect of 4 samples: A mogroside/mineral extract composition (Labeled—1 in FIG. 6A), mineral extract composition (Labeled—2 in FIG. 6A), Sucralose liquid concentrate (Labeled—3 in FIG. 6A) and erythritol (Labeled—4 in FIG. 6A) on the mitochondrial metabolism I fibroblast populations, using MTT assay. MTT assay measures the activity of succinate dehydrogenase, a key enzyme in the respiratory electron transport chain in mitrochondria (Berridge & Tan, 1993).
Test materials-were mogroside/mineral extract composition as made above in Example 9, mineral extract composition (˜3% Solution), Sucralose Liquid Concentrate (25% Sucralose by weight)—lot #F2304B311LB and Erythritol (25% Aqueous Solution)—lot #RFA 2104-35, and were kept at room temperature. Materials were diluted in type I sterile water, filtered through a 0.22μ filter and assayed at final concentrations of 2.5%, 0.5% and 0.05% (v:v) on human dermal fibroblasts (Invitrogen) for 72 h in high glucose DMEM medium with 5% calf serum.
In order to measure mitochondrial metabolism in whole cell populations, at the end of the experiment, MTT (3-(4,5-dimethylthiazol-2-yl)-2,5-diphenyltetrazolium bromide, Sigma cat. #M 5655) was added to cell cultures and incubation was continued for an additional 2 hours. Culture media were then discarded and intracellular MTT reduction product formazan was solubilized in 90% isopropanol. The colorimetric signal proportional to the mitochondrial activity in the cell cultures was measured with the BioRad microplate spectrophotometer 3550-UV at 570 nm.

[1] = test system: Normal human dermal fibroblasts (NHDF); experiment: AGE in extracellular matrix collagen of glucose-treated NHDF, anti-AGE antibody spot blot (Example 2); type: cell-based; settings: 1 mg/ml; for Intensity (AU): single replicates, hydrochloride
Method: Normal human dermal fibroblasts (NHDF) were cultivated in conditions that allow the synthesis of high amounts of extracellular matrix (ECM). NHDF were grown to confluence in normal medium in adequate format. Vitamin C was added to the media to induce matrix synthesis/deposition Cells were treated, (or not treated for the negative control) by three concentrations of the mineral extract composition or by a reference compound for a positive control (aminoguanidine). All the conditions were performed in triplicate. An excess of glucose was added to the cells and the cells were incubated at 37° C. for 15 days. At the end of the time, ECM proteins (mainly collagen) were extracted and purified and a fraction of each sample was loaded onto nitrocellulose in reproducible spots. The introduction of AGEs in collagen was shown using an anti-AGE antibody and it was labeled using a peroxidase conjugate and chemiluminescent reaction (ECL). Relative signal qualification was performed using a chemiluminescense imager.

albumin [2] = experiment: Albumin/glucose anti-glycation assay (Example 1); type: biochemical; settings: 1 mM; positive control; FIG. 1
Method: Each reaction mixture contained 10 mg/ml albumin (Sigma) in PBS with 500 mM glucose (Sigma G8270) in PBS. The negative control was 10 mg/ml albumin without glucose. A negative control was used for each experimental point. The positive control was 10 mg/ml albumin with 500 mM glucose with 1 mM aminoguanidine hydrochloride (Sigma 396494).
Each mineral extract composition was diluted in type I sterile water to 10 mg/ml sterilized by 0.22 micron filtration and incubated at dilutions 100 ug/ml, 10 ug/ml, 1 ug/ml and 0.1 ug/ml with the reaction mixture with or without glucose for 11 days at 37° C. in the presence of sodium azide.
Protein glycation was detected by the increase of non-tryptophan fluorescence (excitation at 360 nm, emission at 460 nm) using microplate fluorometer Cytofluor 2350 (Millipore), as described (Argirova and Argirov, 2003). The glycation value for each experimental point was obtained by subtracting the background reading (samples without glucose).

albumin [3] = experiment: AGE formation in the albumin/glucose model system (Example 11); type: biochemical
Method: Mineral extract composition (TL, ˜3% Solution) and a mogroside/mineral extract composition (SS II), Luo Han Guo Extract (L, Lot #MOG01-060502), Erythritol (E, Lot #07J241BP952) and Xylitol (X, Lot #H125T7G1) were kept at room temperature. […] The positive inhibitor control was aminoguanindine hydrochloride (AG) at 1 mM, (Sigma 396494). Protein glycation was detected by the increase of non-tryptophan fluorescence (excitation at 360 nm, emission at 460 nm) using microplate fluorometer Cytofluor 2350 (Millipore), as previously described (Argirova and Argirov, 2003). The glycation value for each experimental point was obtained by subtracting the background reading (samples without glucose) and was expressed as % of control (water).

[4] = test system: adult human dermal fibroblasts (aHDF); experiment: Type I collagen sandwich ELISA in aHDF conditioned medium (Example 9); type: cell-based; settings: all concentrations tested (0.5%, 0.1%, 0.05%, 0.01% w:v); 72 h
Method: A mineral extract composition (TL), Lot #100-151106, ˜3% Solution, and a mogroside/mineral extract composition as taught herein (SS II), mogrosides of Luo Han Guo Extract (Luo HG, Lot #MOG01-060502), Erythritol (Eryt, Lot #07241BP952) and Xylitol (Xylit, Lot #H125T7G1) were tested in the assay. All test materials were kept at room temperature. […] Water was the non-treated control and magnesium ascorbyl phosphate (MAP cat. #A8960, Sigma, St. Louis, Mo.) was the positive control. Cell culture conditioned media were harvested 72 h after the start of the experiment and tested for type I collagen by sandwich ELISA using affinity-purified antibodies, followed by streptavidin-avidin-HRP conjugate and ABTS, according to standard ELISA protocol (Dobak et al., 1994, Zhao et al, 2005). The colorimetric signal proportional to collagen content was measured with the BioRad microplate spectrophotometer 3550-UV at 405 nm.

[5] = test system: human dermal fibroblasts from a donor; experiment: MTT mitochondrial metabolism assay (Example 3); type: cell-based
Method: The objective of this assay was to test the effect of mineral extract compositions (6 lots) on the mitochondrial metabolism in a cell culture population, using MTT assay. MTT assay measures the activity of succinate dehydrogenase, a key enzyme in the respiratory electron transport chain is mitochondria (Berridge & Tan, 1993).
Mineral extract compositions were diluted in type I sterile water to 10 mg/ml, sterilized by 0.22 micron filtration and incubated at dilutions 500 ug/ml, 50 ug/ml and 5 ug/ml and 0.5 ug/ml with 2,500 human dermal fibroblasts from a donor (Cascade Biologics, lot #061215-901) per well for 72 h in high glucose DMEM medium with 2.5% calf serum.
For mitochondrial metabolism measurement, at the end of the experiment, MTT (3-(4,5-dimethylthiazol-2-yl)-2,5-diphhenyltetrazolium bromide, Sigma cat. #M 5655) was added to cell cultures and incubated for 2 h. Culture media were then discarded and intracellular MTT reduction product formazan was solubilized in 100% DMSO. The colorimetric signal proportional to the mitochondrial activity in the cell cultures was measured with the BioRad microplate spectrophotometer 3550-UV at 570 nm.
The mitochondrial metabolism was standardized with regard to cell numbers by establishing the ratio of the two corresponding signals.

[6] = test system: Normal human dermal fibroblasts; experiment: Type I collagen sandwich ELISA in fibroblast conditioned medium (Example 4); type: cell-based; settings: positive control; 5 days; FIG. 3
Method: Normal human dermal fibroblasts (passage 7, lot #7F1254, Cambrex, Walkersville, Md.) were seeded in a 96-well plate (plate #431) in DMEM medium (high glucose) containing 5% fetal calf serum, and grown to late subconfluent stage. Aqueous solutions of mineral extract composition were prepared in sterile Type I water and added to cell cultures at 1/20 dilution. Water was the non-treated control and magnesium ascorbyl phosphate (MAP cat. #A8960, Sigma, St. Louis, Mo.) was the positive control. Cell culture conditioned media were harvested 5 days after the start of the experiment and tested for type I collagen by sandwich ELISA using affinity-purified antibodies, followed by streptavidin-avidin-HRP conjugate and ABTS, according to standard ELISA protocol (Dobak et al., 1994, Zhao et al, 2005).
The colorimetric signal proportional to collagen content was measured with the BioRad microplate spectrophotometer 3550-UV at 405 nm. See FIG. 3, Effect of mineral extract composition on type I collagen in HDF-conditioned medium.

[7] = test system: Clostridium collagenase IV; experiment: Metalloproteinase (collagenase) activity, Enzcheck quenched fluorescent gelatin (Example 5); type: biochemical; settings: 100 ug/ml; positive control
Method: Metalloproteinase (MP) (collagenase) activity was measured with Enzcheck kit from Molecular Probes (Invitrogen, IL) using quenched fluorescent gelatin and Clostridium collagenase IV, a generic metalloproteinase. Mineral extract composition, in dilutions of 500 ug/ml, 50 ug/ml and 5 ug/ml and 0.5 ug/ml, were incubated in the presence of collagenase substrate-quenched fluorescin-linked gelatin and in the presence of the proteolytic enzyme collagenase. Phenanthroline, a potent MP inhibitor was used as positive control at 100 ug/ml. The kinetics of the release of the digested, fluorescent gelatin were measured at excitation/emission wavelengths of 485/530 nm with Millipore Cytofluor 2350 microfluorometer.

[8] = 2.5%, 0.5% and 0.05% (v:v), 72 h, FIG. 6A

For `OC[C@H]1O[C@H](O[C@]2(CCl)O[C@H](CCl)[C@@H](O)[C@@H]2O)[C@H](O)[C@@H](O)[C@H]1Cl` [Sucralose], the “effect on mitochondrial metabolism (MTT)” value (human dermal fibroblasts; [8]) was “inhibited cell metabolism”.
For `Cl.N=C(N)NN` [Aminoguanidine, aminoguanidine hydrochloride], the “% Control” value ([1]; First membrane) was 62%, the Average ([1]; First membrane) was 33454 AU and the “Intensity (AU)” value ([1]; First membrane) was 38328 AU and 37316 AU and 24719 AU. The “% Control” value ([1]; Membrane 2) was 64%, the Average ([1]; Membrane 2) was 38752 AU and the “Intensity (AU)” value ([1]; Membrane 2) was 38464 AU (2×) and 41333 AU (2×) and 36460 AU (2×). For the same compound, the “inhibitory activity on albumin glycation” value (albumin [2]) was “good inhibitory activity” and the glycation-inhibitory activity (albumin [3]; 1 mM, positive inhibitor control) was “strong glycation-inhibitory activity”.
`OC[C@@H](O)[C@@H](O)CO` [Erythritol] was tested, and the collagen-stimulatory activity [4] was “no significant activity”, the “effect on mitochondrial metabolism (MTT)” value (human dermal fibroblasts; [8]) was “no activity” and the glycation-inhibitory effect (albumin [3]; at lower concentrations) was “moderate inhibitory effect”.
With “bFGF: basic fibroblast growth factor, positive control” the “sensitivity of fibroblast mitochondrial metabolism” value ([5]; results not shown) was “not sensitive” and the “effect on mitochondrial metabolism (MTT)” value (human dermal fibroblasts; 15 nM, positive control) was “metabolic stimulation”.
For `O=C1O[C@H]([C@@H](O)CO)C([O-])=C1OP(=O)([O-])[O-].O=C1O[C@H]([C@@H](O)CO)C([O-])=C1OP(=O)([O-])[O-].[Mg+2].[Mg+2].[Mg+2]` [MAP, magnesium ascorbyl phosphate], the “stimulation of collagen I” value [6] was “Strong stimulation”.
`c1cnc2c(c1)ccc1cccnc12` [phenanthroline, Phenanthroline] was tested, and the MP activity [7] was “totally inhibited”.
In the case of `CN(CC(=O)O)C(=N)N` [creatine], the “stimulation of mitochondrial metabolism” value ([5]; 500 ug/ml, 72 h) is reported as 6.3%.
In the case of `OC[C@@H](O)[C@H](O)[C@@H](O)CO` [Xylitol], the collagen-stimulatory activity [4] is reported as “no significant activity” and the glycation-inhibitory effect (albumin [3]; all concentrations tested (0.5%, 0.1%, 0.05%, 0.01% w:v), FIG. 7) is reported as “no effect”.
